Results reported in patent US20260365670A1, “EGFR INHIBITORS AND USES THEREOF” (DIZAL (JIANGSU) PHARMACEUTICAL CO., LTD., priority 2022, published 2026).
Like-named read-outs stand apart in the source and are kept apart here.

Legend:
[1] = biological target: T1, EGFR (d746-750 C797S) (Homo sapiens, UniProt P00533, C797S/DEL746-750); test: Inhibition of EGFR (d746-750 C797S) biochemical enzymatic activity (HTRF); details: 1 mM ATP
T1 construct: purchased signalchem
In short: (§1)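 For IC50 determination by four-parameter logistic fit, EDTA-quenched 1 h room-temperature reactions (1 mM ATP, 1 μM TK Substrate-biotin) were read by HTRF. The 665/615 nm emission ratio after 320 nm excitation served as the activity signal.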

[2] = biological target: T2, EGFR[T790M/C797S/d746-750] (Homo sapiens, UniProt P00533, C797S/DEL746-750/T790M); test: Inhibition of EGFR[T790M/C797S/d746-750] biochemical enzymatic activity (HTRF)
T2 construct: purchased Carna Bio
In short: as §1

[3] = system: Ba/F3 cells expressing EGFR mutations; test: Cell proliferation assay, Ba/F3 cells expressing EGFR mutations (CellTiter-Glo, 72 hours); type: cell-based
In short: (§2)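 Cells are exposed to graded compound concentrations after overnight plating, using 500 PC-9 or 5000 Ba/F3 per well. Baseline-subtracted viability is compared with vehicle to give percent proliferation, then GI50.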

[4] = biological target: T3, EGFR L858R/T790M (Homo sapiens, UniProt P00533, L858R/T790M); test: Inhibition of EGFR L858R/T790M biochemical enzymatic activity (HTRF); details: 1 mM ATP
T3 construct: purchased Carna Bio
T3 sequence (P00533 25-1210 T790M/L858R): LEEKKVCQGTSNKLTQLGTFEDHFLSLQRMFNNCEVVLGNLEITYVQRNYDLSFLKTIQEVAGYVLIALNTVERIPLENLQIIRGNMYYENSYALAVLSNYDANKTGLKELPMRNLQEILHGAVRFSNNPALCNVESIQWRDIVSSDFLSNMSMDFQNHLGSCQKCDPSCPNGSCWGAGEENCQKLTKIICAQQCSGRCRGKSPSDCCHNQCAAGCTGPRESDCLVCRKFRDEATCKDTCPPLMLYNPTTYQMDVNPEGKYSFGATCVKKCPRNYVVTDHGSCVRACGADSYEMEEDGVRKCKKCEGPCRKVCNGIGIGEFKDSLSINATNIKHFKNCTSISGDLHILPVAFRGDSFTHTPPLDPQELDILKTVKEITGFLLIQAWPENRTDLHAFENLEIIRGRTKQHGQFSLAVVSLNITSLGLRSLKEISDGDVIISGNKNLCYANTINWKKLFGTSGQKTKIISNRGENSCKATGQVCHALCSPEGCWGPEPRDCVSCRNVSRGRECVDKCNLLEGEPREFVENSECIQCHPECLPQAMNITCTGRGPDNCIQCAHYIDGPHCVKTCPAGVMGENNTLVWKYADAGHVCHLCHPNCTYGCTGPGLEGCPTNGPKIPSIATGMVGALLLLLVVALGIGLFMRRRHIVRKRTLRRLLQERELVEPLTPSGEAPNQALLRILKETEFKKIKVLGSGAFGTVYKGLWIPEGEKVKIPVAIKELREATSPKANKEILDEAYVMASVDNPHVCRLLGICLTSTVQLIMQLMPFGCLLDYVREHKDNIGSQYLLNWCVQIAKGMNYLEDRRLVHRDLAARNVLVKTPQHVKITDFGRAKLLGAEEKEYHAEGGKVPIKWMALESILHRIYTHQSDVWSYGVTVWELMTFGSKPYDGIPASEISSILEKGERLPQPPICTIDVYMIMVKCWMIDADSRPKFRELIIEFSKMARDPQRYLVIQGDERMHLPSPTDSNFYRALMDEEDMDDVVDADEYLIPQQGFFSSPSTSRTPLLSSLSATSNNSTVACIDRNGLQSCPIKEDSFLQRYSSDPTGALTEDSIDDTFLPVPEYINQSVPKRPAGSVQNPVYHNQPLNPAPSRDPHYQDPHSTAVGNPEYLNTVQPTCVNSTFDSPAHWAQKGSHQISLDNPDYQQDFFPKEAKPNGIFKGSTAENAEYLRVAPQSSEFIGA
In short: as §1

[5] = system: PC-9; test: Cell proliferation assay, PC-9 cells (CellTiter-Glo, 72 hours); type: cell-based; details: PC9 cells
In short: as §2

[6] = biological target: T4, EGFR wild type (Homo sapiens, UniProt P00533); test: Inhibition of EGFR wild type biochemical enzymatic activity (HTRF); details: 1 mM ATP
T4 construct: purchased Carna Bio
In short: as §1

[7] = biological target: T5, EGFR Exon19Del (Homo sapiens, UniProt P00533, DEL746-750); test: Inhibition of EGFR Exon19Del biochemical enzymatic activity (HTRF); details: read-out: IC50 @Del19
T5 construct: purchased Carna Bio
T5 sequence (P00533 with tags, fused parts or gaps DEL746-750 limits assumed): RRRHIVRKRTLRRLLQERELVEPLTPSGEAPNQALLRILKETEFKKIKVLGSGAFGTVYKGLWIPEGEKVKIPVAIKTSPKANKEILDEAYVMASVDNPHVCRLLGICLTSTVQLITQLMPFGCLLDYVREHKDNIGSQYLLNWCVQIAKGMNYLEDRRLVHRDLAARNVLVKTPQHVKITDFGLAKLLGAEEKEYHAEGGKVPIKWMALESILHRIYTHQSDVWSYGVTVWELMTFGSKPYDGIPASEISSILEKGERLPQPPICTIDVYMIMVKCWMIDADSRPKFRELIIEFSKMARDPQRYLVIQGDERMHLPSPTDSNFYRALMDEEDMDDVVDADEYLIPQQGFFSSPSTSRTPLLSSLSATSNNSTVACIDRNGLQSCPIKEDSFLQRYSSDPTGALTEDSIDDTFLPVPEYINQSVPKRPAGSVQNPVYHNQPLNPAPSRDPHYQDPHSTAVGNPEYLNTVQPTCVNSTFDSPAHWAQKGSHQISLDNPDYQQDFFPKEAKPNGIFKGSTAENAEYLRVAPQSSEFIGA
In short: as §1

[8] = biological target: T6, EGFR L858R (Homo sapiens, UniProt P00533, L858R); test: Inhibition of EGFR L858R biochemical enzymatic activity (HTRF); details: 1 mM ATP
T6 construct: purchased Carna Bio
T6 sequence (P00533 25-1210 L858R): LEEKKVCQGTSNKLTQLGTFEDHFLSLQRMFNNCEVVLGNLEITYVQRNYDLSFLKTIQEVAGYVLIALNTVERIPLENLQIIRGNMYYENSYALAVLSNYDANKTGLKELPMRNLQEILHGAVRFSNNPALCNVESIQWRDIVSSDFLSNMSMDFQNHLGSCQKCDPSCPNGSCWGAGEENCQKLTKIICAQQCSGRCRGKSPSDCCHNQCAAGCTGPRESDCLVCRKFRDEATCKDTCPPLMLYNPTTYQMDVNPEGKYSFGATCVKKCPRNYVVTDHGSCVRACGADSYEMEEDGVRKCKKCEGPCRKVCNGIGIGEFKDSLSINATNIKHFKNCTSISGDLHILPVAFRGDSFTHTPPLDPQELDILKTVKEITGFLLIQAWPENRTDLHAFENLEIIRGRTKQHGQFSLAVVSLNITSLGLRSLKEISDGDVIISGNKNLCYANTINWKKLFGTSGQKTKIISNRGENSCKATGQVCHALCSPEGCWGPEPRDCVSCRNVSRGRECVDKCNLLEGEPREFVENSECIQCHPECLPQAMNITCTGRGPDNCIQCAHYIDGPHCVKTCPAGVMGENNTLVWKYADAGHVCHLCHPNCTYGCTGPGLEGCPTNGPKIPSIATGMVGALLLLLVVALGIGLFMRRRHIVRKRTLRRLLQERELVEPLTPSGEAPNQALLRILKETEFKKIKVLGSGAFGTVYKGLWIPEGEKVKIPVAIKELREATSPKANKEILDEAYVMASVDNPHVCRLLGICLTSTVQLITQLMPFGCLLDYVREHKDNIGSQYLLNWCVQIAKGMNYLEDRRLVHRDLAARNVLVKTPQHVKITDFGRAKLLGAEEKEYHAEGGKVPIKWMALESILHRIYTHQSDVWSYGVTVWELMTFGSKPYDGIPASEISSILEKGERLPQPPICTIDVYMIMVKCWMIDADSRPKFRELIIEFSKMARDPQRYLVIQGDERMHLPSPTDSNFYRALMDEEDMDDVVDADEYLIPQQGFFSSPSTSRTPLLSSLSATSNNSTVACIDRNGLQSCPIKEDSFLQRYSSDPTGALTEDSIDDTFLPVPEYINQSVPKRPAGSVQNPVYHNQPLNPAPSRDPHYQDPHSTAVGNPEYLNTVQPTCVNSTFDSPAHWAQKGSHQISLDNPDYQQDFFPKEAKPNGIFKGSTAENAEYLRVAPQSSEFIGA
In short: as §1

[9] = biological target: T7, EGFR[T790M/C797S/L858R] (Homo sapiens, UniProt P00533, C797S/L858R/T790M); test: Inhibition of EGFR[T790M/C797S/L858R] biochemical enzymatic activity (HTRF); details: 1 mM ATP
T7 construct: purchased Carna Bio
T7 sequence (P00533 25-1210 T790M/C797S/L858R): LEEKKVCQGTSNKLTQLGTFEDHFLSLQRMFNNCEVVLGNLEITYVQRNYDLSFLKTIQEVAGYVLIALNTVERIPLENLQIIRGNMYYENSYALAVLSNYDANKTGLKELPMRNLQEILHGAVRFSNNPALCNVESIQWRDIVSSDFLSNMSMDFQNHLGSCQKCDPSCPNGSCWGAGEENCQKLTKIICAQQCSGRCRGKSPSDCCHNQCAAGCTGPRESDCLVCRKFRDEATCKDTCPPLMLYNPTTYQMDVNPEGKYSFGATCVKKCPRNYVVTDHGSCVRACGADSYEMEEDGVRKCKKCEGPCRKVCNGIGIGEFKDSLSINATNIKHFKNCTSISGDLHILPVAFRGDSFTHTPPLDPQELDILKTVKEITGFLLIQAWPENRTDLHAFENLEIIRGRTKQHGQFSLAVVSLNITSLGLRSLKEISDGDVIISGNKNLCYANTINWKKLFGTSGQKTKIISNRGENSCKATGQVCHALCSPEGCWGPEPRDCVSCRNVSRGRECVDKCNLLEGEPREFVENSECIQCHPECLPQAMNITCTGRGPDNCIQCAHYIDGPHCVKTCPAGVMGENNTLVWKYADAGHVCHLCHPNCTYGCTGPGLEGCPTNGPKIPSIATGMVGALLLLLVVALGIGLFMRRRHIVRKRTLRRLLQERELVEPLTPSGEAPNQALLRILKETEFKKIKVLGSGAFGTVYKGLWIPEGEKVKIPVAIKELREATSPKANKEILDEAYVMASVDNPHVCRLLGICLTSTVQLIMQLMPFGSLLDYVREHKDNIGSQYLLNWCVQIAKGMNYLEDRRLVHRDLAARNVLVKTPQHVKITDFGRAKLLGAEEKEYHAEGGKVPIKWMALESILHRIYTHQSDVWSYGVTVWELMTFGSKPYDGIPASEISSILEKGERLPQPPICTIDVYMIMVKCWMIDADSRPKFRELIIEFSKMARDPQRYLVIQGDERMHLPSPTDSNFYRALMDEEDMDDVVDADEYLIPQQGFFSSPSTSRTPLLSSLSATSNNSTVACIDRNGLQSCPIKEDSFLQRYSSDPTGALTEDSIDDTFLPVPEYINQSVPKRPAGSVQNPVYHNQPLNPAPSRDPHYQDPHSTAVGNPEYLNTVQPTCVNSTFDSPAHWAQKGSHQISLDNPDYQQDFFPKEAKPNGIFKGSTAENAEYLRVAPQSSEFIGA
In short: as §1

[10] = biological target: T8, EGFR (C797S L858R) (Homo sapiens, UniProt P00533, C797S/L858R); test: Inhibition of EGFR (C797S L858R) biochemical enzymatic activity (HTRF); details: 1 mM ATP
T8 construct: purchased signalchem
In short: as §1

[11] = biological target: T9, EGFR Exon19Del/T790M (Homo sapiens, UniProt P00533, DEL746-750/T790M); test: Inhibition of EGFR Exon19Del/T790M biochemical enzymatic activity (HTRF); details: 1 mM ATP
T9 construct: purchased Carna Bio
In short: as §1

[12] = EGFR Del19-C797S, 1 h, room temperature, read-out: IC50 (nM) @Del19-C797S
[13] = EGFR T790M-C797S-Del19, 1 mM ATP, 1 h, room temperature, read-out: IC50 (nM) @T790M - C797S - Del19
[14] = BaF3 cells, EGFR DEL19-C797S, CellTiter-Glo, read-out: DEL19-C797S/BaF3 GI50
[15] = BaF3 cells, EGFR DEL19-T790-C797S, CellTiter-Glo, read-out: DEL19-T790-C797S/BaF3 GI50
[16] = BaF3 cells, EGFR L858R, CellTiter-Glo, read-out: L858R/BaF3 GI50
[17] = BaF3 cells, EGFR L858R-C797S, CellTiter-Glo, read-out: L858R-C797S/BaF3 GI50
[18] = BaF3 cells, EGFR L858R-T790-C797S, CellTiter-Glo, read-out: L858R-T790-C797S/BaF3 GI50
[19] = BaF3 cells, EGFR L858R-T790M, CellTiter-Glo, read-out: L858R-T790M/BaF3 GI50
[20] = EGFR DEL19-T790M, CellTiter-Glo, read-out: DEL19-T790M GI50
[21] = EGFR L858R-T790M, 1 h, room temperature, read-out: IC50 (nM) @L858R-T790M
[22] = CellTiter-Glo, read-out: PC9 GI50
[23] = EGFR WT, 1 h, room temperature, read-out: IC50 (nM) @WT
[24] = EGFR Del19, 1 mM ATP, 1 h, room temperature
[25] = 1 h, room temperature, read-out: IC50 (nM) @L858R
[26] = EGFR T790M-C797S-L858R, 1 h, room temperature, read-out: IC50 (nM) @T790M- C797S - L858R
[27] = EGFR L858-C797S, 1 h, room temperature, read-out: IC50 (nM) @L858-C797S
[28] = EGFR Del19-T790M, 1 h, room temperature, read-out: IC50 (nM) @Del19-T790M

T1 sequence (P00533 with tags, fused parts or gaps DEL746-750/C797S limits assumed): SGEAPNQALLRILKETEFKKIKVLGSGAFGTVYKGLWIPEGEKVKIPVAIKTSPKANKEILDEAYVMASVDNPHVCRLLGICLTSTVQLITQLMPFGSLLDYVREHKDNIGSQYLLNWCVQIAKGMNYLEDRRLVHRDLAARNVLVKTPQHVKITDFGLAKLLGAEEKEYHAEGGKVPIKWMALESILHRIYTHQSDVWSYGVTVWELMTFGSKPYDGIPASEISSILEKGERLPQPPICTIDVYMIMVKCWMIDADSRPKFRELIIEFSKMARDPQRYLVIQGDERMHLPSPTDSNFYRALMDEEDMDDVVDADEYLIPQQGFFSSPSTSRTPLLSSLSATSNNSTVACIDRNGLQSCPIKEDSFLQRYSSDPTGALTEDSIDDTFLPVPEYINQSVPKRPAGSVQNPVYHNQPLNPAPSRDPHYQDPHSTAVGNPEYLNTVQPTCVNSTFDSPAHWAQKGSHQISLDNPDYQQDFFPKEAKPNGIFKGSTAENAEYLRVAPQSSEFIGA

Row | IC50 [1, 12] [nM] | IC50 [2, 13] [nM] | GI50 [3, 14] [nM] | GI50 [3, 15] [nM] | GI50 [3, 16] [nM] | GI50 [3, 17] [nM] | GI50 [3, 18] [nM] | GI50 [3, 19] [nM] | GI50 [3, 20] [nM] | IC50 [4, 21] [nM] | GI50 [5, 22] [nM] | IC50 [6, 23] [nM] | IC50 [7, 24] [nM] | IC50 [8, 25] [nM] | IC50 [9, 26] [nM] | IC50 [10, 27] [nM] | IC50 [11, 28] [nM] | Compound | other results
1 | – | – | – | – | – | – | – | – | – | – | – | – | – | – | – | – | – | Cc1cc2cc(n1)-c1cnn(C)c1OCCN1CC3CCC(C3)(C1)n1c(nc3ccc(N4CCN(C(C)C)CC4)cc31)NC2=O (single isomer, unassigned) [Example B57A] | IC50 ([1]; EGFR (d746-750 C797S), 1 h at room temperature, read-out: IC50 @Del19-C797S): > 5000 nM; IC50 ([2]; EGFR[T790M/C797S/d746-750], 1 mM ATP, 1 h at room temperature, read-out: IC50 @T790M - C797S - Del19): 792 nM; GI50 ([3]; BaF3 cells, EGFR DEL19 - C797S, read-out: GI50 DEL19 - C797S/BaF3): 208 nM; GI50 ([3]; BaF3 cells, EGFR DEL19 - T790-C797S, read-out: GI50 DEL19 - T790-C797S/BaF3): 428 nM; GI50 ([3]; BaF3 cells, EGFR L858R - C797S, read-out: GI50 L858R - C797S/BaF3): 829 nM; GI50 ([3]; BaF3 cells, EGFR L858R - T790-C797S, read-out: GI50 L858R - T790-C797S/BaF3): 147 nM; GI50 ([3]; BaF3 cells, EGFR L858R - T790M, read-out: GI50 L858R - T790M/BaF3): 324 nM; GI50 ([3]; BaF3 cells, EGFR L858R, read-out: GI50 L858R/BaF3): 2000 nM; GI50 ([3]; EGFR DEL19 - T790M, read-out: GI50 DEL19 - T790M): 612 nM; IC50 ([4]; EGFR L858R/T790M, 1 h at room temperature, read-out: IC50 @L858R-T790M): > 5000 nM; GI50 ([5]; read-out: GI50 PC9): 941 nM; IC50 ([6]; EGFR wild type, 1 h at room temperature, read-out: IC50 @WT): > 5000 nM; IC50 ([7]; EGFR Exon19Del, 1 mM ATP, 1 h at room temperature): > 5000 nM; IC50 ([8]; 1 h at room temperature, read-out: IC50 @L858R): > 5000 nM; IC50 ([9]; EGFR[T790M/C797S/L858R], 1 h at room temperature, read-out: IC50 @T790M- C797S - L858R): > 5000 nM; IC50 ([10]; EGFR (C797S L858R), 1 h at room temperature, read-out: IC50 @L858-C797S): > 5000 nM; IC50 ([11]; EGFR Exon19Del/T790M, 1 h at room temperature, read-out: IC50 @Del19-T790M): 1770 nM
2 | 330 | 4190 | 100 | 341 | 617 | 263 | 652 | 246 | 363 | > 5000 | 683 | > 5000 | 381 | 2600 | > 5000 | 2770 | > 5000 | CN1CC2CC1CN2c1ccc2nc3n(c2c1)C12CCC(CN(CCOc4c(cnn4C)-c4cc(cn(C)c4=O)C(=O)N3)C1)C2 (single isomer, unassigned) [Example A105A] | –
3 | 599 | > 5000 | 50 | 120 | 181 | 244 | 264 | 367 | 123 | > 5000 | 989 | > 5000 | 689 | 2120 | > 5000 | 2820 | > 5000 | CN1CCOC2(C1)CN(c1ccc3nc4n(c3c1)C13CCC(CN(CCOc5c(cnn5C)-c5cc(cn(C)c5=O)C(=O)N4)C1)C3)C2 (single isomer, unassigned) [Example A86A] | –
